Reference: patent publication US20100286283A1, “MICROTUBULE-DISRUPTNG AGENT AND CANCER CELL PROLIFERATION INHIBITOR CONTAINING THE SAME” (priority 2007, published 2010)

Key:
tubulins [1] = test: Tubulin binding experiment, comigration in SDS-PAGE; details: for influence on comigration of NBD-PZ-CO—CH═CH—(CH2)5—CH3 with tubulins: compound coexisting with the probe
Procedure: Tubulins and a fluorescence dye, NBD-PZ or NBD-PZ-CO—CH═CH—(CH2)5—CH3 were reacted and electrophoresis (SDS-PAGE) was then performed. Binding with the tubulins was determined with comigration (fluorescence derived from NBD-PZ was detected with tubulins).

HGC-27 cells [2] = test: Influence on cell cycle, BrdU flow cytometry; type: cell-based; details: 2 μg/ml, 18 hours
Procedure: 2×10^5 gastric cancer cells (HGC-27 cells) were seeded in 12-well plates and incubated in the presence of 6-shogaol at 2 μg/ml for 18 hours from the next day, and then, further incubated in the presence of 10 μM of BrdU for 2 hours. In order to measure intake of BrdU in nuclei and DNA amounts in the nucleus, the cells were stained using a BrdU flow kit (BD Pharmingen, Inc., San Diego, Calif.). 10000 cells were analyzed with the flow cytometer manufactured by Beckman Coulter, Inc. (Fullerton, Calif.). The cells containing a large amount of DNA and a small amount of BrdU were considered to be in G2-M phase.

[3] = tested on: gastric cancer cells (HGC-27 cells, AGS cells, and KATO III cells); test: Cell viability of gastric cancer cells, Cell Titer 96 cell proliferation assay; type: cell-based; details: 0 to 4 μg/ml, 24 hours, HGC-27, AGS
Procedure: 1×10^4 gastric cancer cells (HGC-27 cells, AGS cells, and KATO III cells) were seeded in 96 well-plates, and incubated with 6-shogaol (0 to 4 μg/ml) for 24 hours from the next day. Viability of the cells was evaluated in a coloring method using Cell Titer 96 cell proliferation assay (Promega Co., Madison, Wis.), and an absorbance was measured. In this assay, living cells develop color with a reagent, and as the number of living cells is larger, the absorbance is higher. The cell viability was calculated by (absorbance at each addition concentration of 6-shogaol)/(absorbance at 0 μg/ml). Therefore, the viable cell ratio was 1.0 on the basis of 0 μg/ml. 6-shogaol was purchased from Wako Pure Chemical Industries, Ltd. (Osaka, Japan) (purity of 98% or more). Each gastric cancer cell was available from the cell bank in RIKEN BioResource Center (RIKEN BRC cell bank) or ATCC (American Type Culture Collection).

[4] = tested on: gastric cancer cells (HGC-27 cells); test: Effect on tumor of gastric cancer cells transplanted to a nude mouse; type: in vivo; details: 400 μl at 0 to 200 μg/ml into the abdominal cavity for 8 days; HGC-27 subcutaneous tumor
Procedure: 2.5×10^6 gastric cancer cells (HGC-27 cells) were subcutaneously inoculated into the flank of a nude mouse (7-week-old, purchased from Japan SLC, Inc.). After 3 weeks when the tumors had reached an average volume of approximately 40 mm^3, and then 400 μl of 6-shogaol at 0 to 200 μg/ml was administered into the abdominal cavity for 8 days. The tumor volume was measured before the first administration of 6-shogaol and after one day from the eighth administration. Comparing volumes of the tumor before and after administration of 6-shogaol, its magnification was evaluated as a growth ratio of the tumor.

[5] = tested on: various cancer cells (HGC-27 cells, AGS cells, KATO III cells, Jurkat cells, A549 cells, and SW620 cells); test: Viability (ED50) of various cancer cells; type: cell-based; details: 24 hours culture
Procedure: (§1) ED50: concentration of 6-shogaol, which decreases the cell viability to 0.5 (50%) as compared with the control.
(§2) ED50 of 6-shogaol was examined on various cancer cells (HGC-27 cells, AGS cells, KATO III cells, Jurkat cells, A549 cells, and SW620 cells) to evaluate whether or not 6-shogaol was also effective for cancer cells other than gastric cancer cells. The culturing time was set to 24 hours.

A549 cells = test: Viability (ED50) of A549 cells; type: cell-based; details: 24 hours culture
Procedure: as §1, §2

[6] = tested on: SH groups contained in tubulins; test: Quantification of SH groups of tubulin, Ellman method; type: biochemical; details: tubulins 2 μM, 100 μM of 6-shogaol
Procedure: SH groups contained in tubulins are converted to 5,5′-dithiobis-nitrobenzoic acid into thionitrobenzoate, and an absorbance of the solution at a wavelength of 412 nm (Ellman reaction) increases. The absorbance (412 nm) was measured to evaluate an influence given to an amount of SH groups.
An α,β-unsaturated carbonyl compound having a larger molecular weight reacted with more SH groups in the tubulins, and as a result, the amount of the SH groups was decreased and the absorbance (412 nm) was lowered (FIG. 8).

tubulins [7] = test: Tubulin polymerization experiment, absorbance at 340 nm; type: biochemical; details: 20 μM tubulins
Procedure: Polymerization of 20 μM of tubulins was evaluated by measuring an absorbance at a wavelength of 340 nm.
Along with gradually polymerizing tubulins in a polymerization solution (80 mM PIPES, pH 6.9, 2 mM MgCl2, 0.5 mM EGTA, 5% glycerol and 1 mM GTP), an absorbance of the solution at a wavelength of 340 nm increases. The absorbance (340 nm) was measured in every 5 minutes to thus evaluate an influence given to the polymerization.

HGC-27 cells [8] = test: Viable cell ratio of HGC-27 cells, CellTiter96 cell proliferation assay; type: cell-based; details: 0 to 40 μM, 24 hours
Procedure: 1×10^4 gastric cancer cells (HGC-27 cells) were seeded in 96-well plates, and incubated with CH3—CO—CH═CH—(CH2)4—CH3, CH3—CO—(CH2)6—CH3 or CH3—CH2—CH═CH—(CH2)4—CH3 (0 to 40 μM) for 24 hours from the next day. Cell viability was evaluated in a coloring method using CellTiter96 cell proliferation assay (Promega Co., Madison, Wis.), and an absorbance was measured. In this assay, living cells develop color with a reagent, and as the number of living cells is larger, the absorbance is higher. The viable cell ratio was calculated by (absorbance at each addition concentration)/(absorbance at 0 μM). Therefore, the viable cell ratio was 1.0 on the basis of 0 μM.

HGC-27 cells [9] = test: Immunostaining of actin and tubulins in gastric cancer cells; type: cell-based; details: 40 μM, 6 hours
Procedure: Gastric cancer cells (HGC-27 cells) were incubated with 6-shogaol at 2 μg/ml for 6 hours and then fixed, and actin was fluorescent-stained with Alexa Fluor phalloidin (Molecular Probes Inc., Eugene, Oreg.), and tubulins were fluorescent-stained with an anti-tubulin β antibody (Lab Vision Co., Fremont, Calif.) and Alexa Fluor 488 labeled second antibody (Molecular Probes, Inc.).
Gastric cancer cells (HGC-27 cells) were incubated with CH3—CO—CH═CH—(CH2)4—CH3, CH3—CO—(CH2)6—CH3 or CH3—CH2—CH═CH—(CH2)4—CH3 (40 μM) for 6 hours and then fixed, and tubulins were fluorescent-stained with anti-tubulin β antibody (Lab Vision Co., Fremont, Calif.) and Alexa Fluor 488 labeling second antibody (Molecular Probes, Inc.).

Row | Compound | influence on comigration of NBD-PZ-CO—CH═CH—(CH2)5—CH3 with tubulins (tubulins [1]) | polymerization of tubulins (tubulins [7]; 500 μM compound) | viable cell ratio (HGC-27 cells [8]) | reticulate distribution of tubulins (structure of microtubule) (HGC-27 cells [9]) | also measured
1 | CCCCC[C@H](O)CC(=O)CCc1ccc(O)c(OC)c1 [6-gingerol] | did not give an influence on comigration | – | – | – | –
2 | CCCCC/C=C/C(=O)CCc1ccc(O)c(OC)c1 [6-shogaol] | the comigration was inhibited | – | – | – | ratio of cells in G2-M stage (HGC-27 cells [2]): significantly increased; cell viability [3]: decreased the cell viability; growth ratio of tumor [4]: the growth of the tumor was inhibited; viability of various cancer cells [5]: decreased the viability; susceptibility to 6-shogaol compared with the other cancer cells (A549 cells): low; amount of SH groups contained in the tubulins [6]: approximately the same effect as 500 μM of CH3—CO—CH═CH—(CH2)5—CH3
3 | CCC=CCCCCC [CH3—CH2—CH═CH—(CH2)4—CH3] | – | gave no influence | only CH3—CO—CH═CH—(CH2)4—CH3 (∘) decreased the viable cell ratio | only CH3—CO—CH═CH—(CH2)4—CH3 inhibited a reticulate distribution of tubulins | –
4 | CCCCCCCC(C)=O [CH3—CO—(CH2)6—CH3] | – | gave no influence | only CH3—CO—CH═CH—(CH2)4—CH3 (∘) decreased the viable cell ratio | only CH3—CO—CH═CH—(CH2)4—CH3 inhibited a reticulate distribution of tubulins | –
5 | CCCCCC=CC(C)=O [CH3—CO—CH═CH—(CH2)4—CH3] | – | inhibited polymerization of tubulins | decreased the viable cell ratio | inhibited a reticulate distribution of tubulins | polymerization of tubulins (tubulins [7]; 250 μM compound): inhibited polymerization of tubulins
6 | CCCCCCC=CC(=O)N1CCN(c2ccc([N+](=O)[O-])c3nonc23)CC1 [NBD-PZ-CO—CH═CH—(CH2)5—CH3] | – | – | – | – | binding with tubulins (comigration) (tubulins [1]; probe reacted with tubulins, SDS-PAGE): comigrated with the tubulins
